The text below walks through data of the OligoGym collection.

The data set concerns the target HBV. To be noted: ASO.

Several values for one entry are separate records, joined by “and”; a condition that tells them apart may be missing. Equal entries are not always repeated. HELM strings list units from the 5' end as sugar, base in round brackets, then linkage (d deoxyribose, r ribose, m 2'-O-methyl, p phosphodiester). Methylation of C is not given here. [moe] = 2'-O-(2-methoxyethyl) (MOE); [cEt] = constrained ethyl (cEt); [sp] = phosphorothioate linkage

Take “RNA1{[moe](A)[sp].[moe](C)[sp].[moe](G)[sp].[moe](G)[sp].[moe](G)[sp].d(C)[sp].d(A)[sp].d(A)[sp].d(C)[sp].d(A)[sp].d(T)[sp].d(A)[sp].d(C)[sp].d(C)[sp].[moe](T)[sp].[moe](T)}$$$$V2.0”: for the setting “HepG2, 0.07 µM”, the target mRNA inhibition is 56% and 46%. As for “RNA1{[moe](A)[sp].[moe](C)[sp].[moe](G)[sp].d(G)[sp].d(G)[sp].d(C)[sp].d(A)[sp].d(A)[sp].d(C)[sp].d(A)[sp].d(T)[sp].d(A)[sp].[moe](C)[sp].[moe](C)[sp].[moe](T)[sp].[moe](T)}$$$$V2.0”, the target mRNA inhibition (HepG2, 0.07 µM) is 48% and 39%. Same read-out and setting: the result for “RNA1{[moe](C)[sp].[moe](G)[sp].[moe](A)[sp].[moe](A)[sp].[moe](C)[sp].d(C)[sp].d(A)[sp].d(C)[sp].d(T)[sp].d(G)[sp].d(A)[sp].d(A)[sp].d(C)[sp].d(A)[sp].[moe](A)[sp].[moe](A)[sp].[moe](T)}$$$$V2.0” reads 34% and 32%; that for “RNA1{[moe](T)[sp].[moe](C)[sp].[moe](C)[sp].d(G)[sp].d(C)[sp].d(A)[sp].d(G)[sp].d(T)[sp].d(A)[sp].d(T)[sp].d(G)[sp].d(G)[sp].[moe](A)[sp].[moe](T)[sp].[moe](C)[sp].[moe](G)[sp].[moe](G)}$$$$V2.0”, 68% and 58%. In the case of “RNA1{[moe](G)[sp].[moe](G)[sp].[moe](T)[sp].d(G)[sp].d(A)[sp].d(A)[sp].d(G)[sp].d(C)[sp].d(G)[sp].d(A)[sp].d(A)[sp].d(G)[sp].[moe](T)[sp].[moe](G)[sp].[moe](C)[sp].[moe](A)}$$$$V2.0”, where the note is “HepG2, 0.07 µM”, the target mRNA inhibition was 67% and 60%. Still for that read-out and setting: as for “RNA1{[moe](G)[sp].[moe](C)[sp].[moe](A)[sp].d(G)[sp].d(T)[sp].d(A)[sp].d(T)[sp].d(G)[sp].d(G)[sp].d(A)[sp].d(T)[sp].d(C)[sp].[moe](G)[sp].[moe](G)[sp].[moe](C)[sp].[moe](A)}$$$$V2.0”, the figure is 81% and 72%; as for “RNA1{[moe](A)[sp].[cEt](T)[sp].d(T)[sp].d(T)[sp].d(A)[sp].d(T)[sp].d(G)[sp].d(C)[sp].d(C)[sp].d(T)[sp].d(A)[sp].d(C)[sp].[cEt](A)[sp].[moe](G)[sp].[cEt](C)[sp].[moe](C)}$$$$V2.0”, 44% and 52%.

For “RNA1{[moe](A)[sp].[cEt](A)[sp].d(G)[sp].d(C)[sp].d(G)[sp].d(A)[sp].d(A)[sp].d(G)[sp].d(T)[sp].d(G)[sp].d(C)[sp].d(A)[sp].[cEt](C)[sp].[moe](A)[sp].[cEt](C)[sp].[moe](G)}$$$$V2.0”, the target mRNA inhibition (HepG2, 0.0092593 µM) came out at 20%; the target mRNA inhibition (HepG2, 0.0277778 µM) is 40%; the target mRNA inhibition (HepG2, 0.07 µM) is 82% and 75%; the target mRNA inhibition (HepG2, 0.0833333 µM) is 75%; the target mRNA inhibition (HepG2, 0.25 µM) came out at 89%. Consider “RNA1{[moe](C)[sp].[cEt](C)[sp].[cEt](A)[sp].d(C)[sp].d(T)[sp].d(G)[sp].d(A)[sp].d(A)[sp].d(C)[sp].d(A)[sp].d(A)[sp].d(A)[sp].d(T)[sp].[cEt](G)[sp].[cEt](G)[sp].[moe](C)}$$$$V2.0”, for which the target mRNA inhibition by setting is: (HepG2, 0.0092593 µM) 11%; (HepG2, 0.0277778 µM) 28%; (HepG2, 0.07 µM) 78% and 84%; (HepG2, 0.0833333 µM) 68%; (HepG2, 0.25 µM) 89%. In the case of “RNA1{[moe](A)[sp].[moe](G)[sp].[moe](G)[sp].[moe](T)[sp].[moe](G)[sp].d(A)[sp].d(A)[sp].d(G)[sp].d(C)[sp].d(G)[sp].d(A)[sp].d(A)[sp].d(G)[sp].d(T)[sp].[moe](G)[sp].[moe](C)}$$$$V2.0”, the target mRNA inhibition (HepG2, 0.07 µM) was 50% and 44%. Still for that read-out and setting: as for “RNA1{[moe](A)[sp].[moe](A)[sp].[moe](C)[sp].[moe](T)[sp].d(G)[sp].d(G)[sp].d(A)[sp].d(G)[sp].d(C)[sp].d(C)[sp].d(A)[sp].d(C)[sp].d(C)[sp].[moe](A)[sp].[moe](G)[sp].[moe](C)}$$$$V2.0”, the figure is 52% and 45%; as for “RNA1{[moe](A)[sp].[moe](G)[sp].[moe](T)[sp].[moe](T)[sp].d(C)[sp].d(C)[sp].d(G)[sp].d(C)[sp].d(A)[sp].d(G)[sp].d(T)[sp].d(A)[sp].d(T)[sp].[moe](G)[sp].[moe](G)[sp].[moe](A)}$$$$V2.0”, 60% and 39%; as for “RNA1{[moe](A)[sp].[cEt](G)[sp].d(A)[sp].d(T)[sp].d(G)[sp].d(A)[sp].d(G)[sp].d(G)[sp].d(C)[sp].d(A)[sp].d(T)[sp].d(A)[sp].[cEt](G)[sp].[moe](C)[sp].[cEt](A)[sp].[moe](G)}$$$$V2.0”, 72% and 60%. Same read-out and setting: the result for “RNA1{[moe](A)[sp].[moe](G)[sp].[moe](G)[sp].[moe](C)[sp].d(A)[sp].d(T)[sp].d(A)[sp].d(G)[sp].d(C)[sp].d(A)[sp].d(G)[sp].d(C)[sp].d(A)[sp].[moe](G)[sp].[moe](G)[sp].[moe](A)[sp].[moe](T)}$$$$V2.0” reads 29% and 31%; that for “RNA1{[moe](A)[sp].[moe](C)[sp].[moe](G)[sp].d(G)[sp].d(G)[sp].d(C)[sp].d(A)[sp].d(A)[sp].d(C)[sp].d(A)[sp].d(T)[sp].d(A)[sp].[moe](C)[sp].[moe](C)[sp].[moe](T)[sp].[moe](T)[sp].[moe](G)}$$$$V2.0”, 43% and 34%.

For “RNA1{[moe](A)[sp].[moe](A)[sp].d(C)[sp].d(T)[sp].d(G)[sp].d(G)[sp].d(A)[sp].d(G)[sp].d(C)[sp].d(C)[sp].d(A)[sp].[moe](C)[sp].[moe](C)[sp].[moe](A)[sp].[moe](G)[sp].[moe](C)[sp].[moe](A)}$$$$V2.0”, the target mRNA inhibition (HepG2, 0.07 µM) was 68% and 53%.

On to “RNA1{[moe](G)[sp].[moe](A)[sp].d(G)[sp].d(G)[sp].d(C)[sp].d(A)[sp].d(T)[sp].d(A)[sp].d(G)[sp].d(C)[sp].d(A)[sp].[moe](G)[sp].[moe](C)[sp].[moe](A)[sp].[moe](G)[sp].[moe](G)}$$$$V2.0”, for which the target mRNA inhibition (HepG2, 0.07 µM) is 0%. Same read-out and setting: as for “RNA1{[moe](C)[sp].[moe](T)[sp].[moe](G)[sp].[moe](G)[sp].[moe](A)[sp].d(G)[sp].d(C)[sp].d(C)[sp].d(A)[sp].d(C)[sp].d(C)[sp].d(A)[sp].d(G)[sp].d(C)[sp].[moe](A)[sp].[moe](G)}$$$$V2.0”, the figure is 46% and 53%. On the same count and under the same terms, the result for “RNA1{[moe](G)[sp].[moe](A)[sp].[moe](A)[sp].d(C)[sp].d(C)[sp].d(A)[sp].d(C)[sp].d(T)[sp].d(G)[sp].d(A)[sp].d(A)[sp].d(C)[sp].[moe](A)[sp].[moe](A)[sp].[moe](A)[sp].[moe](T)[sp].[moe](G)}$$$$V2.0” reads 39% and 47%; that for “RNA1{[moe](G)[sp].[moe](A)[sp].[moe](G)[sp].[moe](G)[sp].[moe](T)[sp].[moe](G)[sp].d(A)[sp].d(A)[sp].d(G)[sp].d(C)[sp].d(G)[sp].d(A)[sp].d(A)[sp].d(G)[sp].d(T)[sp].[moe](G)[sp].[moe](C)}$$$$V2.0”, 75% and 52%; that for “RNA1{[moe](C)[sp].[cEt](C)[sp].[cEt](A)[sp].d(A)[sp].d(G)[sp].d(G)[sp].d(C)[sp].d(A)[sp].d(C)[sp].d(A)[sp].d(G)[sp].d(C)[sp].d(T)[sp].[cEt](T)[sp].[cEt](G)[sp].[moe](G)}$$$$V2.0”, 1% and 0%. On the same count and under the same terms, the result for “RNA1{[moe](C)[sp].[cEt](C)[sp].[cEt](A)[sp].d(C)[sp].d(G)[sp].d(A)[sp].d(G)[sp].d(T)[sp].d(C)[sp].d(T)[sp].d(A)[sp].d(G)[sp].d(A)[sp].[cEt](C)[sp].[cEt](T)[sp].[moe](C)}$$$$V2.0” reads 0%; that for “RNA1{[moe](G)[sp].[cEt](T)[sp].[cEt](T)[sp].d(C)[sp].d(C)[sp].d(G)[sp].d(C)[sp].d(A)[sp].d(G)[sp].d(T)[sp].d(A)[sp].d(T)[sp].d(G)[sp].[cEt](G)[sp].[cEt](A)[sp].[moe](T)}$$$$V2.0”, 69% and 72%. Take “RNA1{[moe](A)[sp].[moe](T)[sp].[moe](G)[sp].d(A)[sp].d(G)[sp].d(G)[sp].d(C)[sp].d(A)[sp].d(T)[sp].d(A)[sp].d(G)[sp].d(C)[sp].[moe](A)[sp].[moe](G)[sp].[moe](C)[sp].[moe](A)[sp].[moe](G)}$$$$V2.0”: the target mRNA inhibition (HepG2, 0.07 µM) was 66% and 51%. The same measure, in the same setting: as for “RNA1{[moe](G)[sp].[moe](G)[sp].d(A)[sp].d(G)[sp].d(T)[sp].d(T)[sp].d(C)[sp].d(C)[sp].d(G)[sp].d(C)[sp].d(A)[sp].[moe](G)[sp].[moe](T)[sp].[moe](A)[sp].[moe](T)[sp].[moe](G)[sp].[moe](G)}$$$$V2.0”, the figure is 88% and 78%.

Regarding “RNA1{[moe](A)[sp].[cEt](G)[sp].d(T)[sp].d(C)[sp].d(C)[sp].d(A)[sp].d(C)[sp].d(C)[sp].d(A)[sp].d(C)[sp].d(G)[sp].d(A)[sp].[cEt](G)[sp].[moe](T)[sp].[cEt](C)[sp].[moe](T)}$$$$V2.0”, for the setting “HepG2, 0.07 µM”, the target mRNA inhibition is 51% and 43%. Turning to “RNA1{[moe](A)[sp].[moe](A)[sp].d(C)[sp].d(C)[sp].d(A)[sp].d(C)[sp].d(T)[sp].d(G)[sp].d(A)[sp].d(A)[sp].d(C)[sp].[moe](A)[sp].[moe](A)[sp].[moe](A)[sp].[moe](T)[sp].[moe](G)[sp].[moe](G)}$$$$V2.0”, the target mRNA inhibition (HepG2, 0.07 µM) was 67% and 59%.

On to “RNA1{[moe](G)[sp].[cEt](A)[sp].[cEt](A)[sp].d(G)[sp].d(C)[sp].d(G)[sp].d(A)[sp].d(A)[sp].d(G)[sp].d(T)[sp].d(G)[sp].d(C)[sp].d(A)[sp].[cEt](C)[sp].[cEt](A)[sp].[moe](C)}$$$$V2.0”, for which, where the note is “HepG2, 0.07 µM”, the target mRNA inhibition was 75% and 78%. For the substance “RNA1{[moe](A)[sp].[moe](A)[sp].[moe](T)[sp].d(T)[sp].d(T)[sp].d(A)[sp].d(T)[sp].d(G)[sp].d(C)[sp].d(C)[sp].d(T)[sp].d(A)[sp].d(C)[sp].[cEt](A)[sp].[cEt](G)[sp].[cEt](C)}$$$$V2.0”, the target mRNA inhibition (HepG2, 0.07 µM) was 47% and 36%.

In the case of “RNA1{[moe](A)[sp].[moe](C)[sp].[moe](T)[sp].d(A)[sp].d(G)[sp].d(T)[sp].d(A)[sp].d(A)[sp].d(A)[sp].d(C)[sp].d(T)[sp].d(G)[sp].[moe](A)[sp].[moe](G)[sp].[moe](C)[sp].[moe](C)[sp].[moe](A)}$$$$V2.0”, the target mRNA inhibition (HepG2, 0.07 µM) was 66% and 67%.
